# Assay results taken from PubChem BioAssay (NCI).
# “And” between values parts separate entries of the source, which are not always exact repeats. Equal values may be shown once.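 Test compounds were applied to cells in 96-well plates for 48 hours at 5 doses. GI50: concentration for 50% inhibition of growth. Definition used: TGI = concentration required for complete inhibition of growth.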
# Tests used:
# Assay in all cases: NCI-60 cell line screen, 48 h
# COLO 205 colon = tested on: COLO 205 colon
# K-562 leukemia = tested on: K-562 leukemia
# OVCAR-3 ovarian = tested on: OVCAR-3 ovarian
# NCI-H226 lung = tested on: NCI-H226 lung
# EKVX NSCLC = tested on: EKVX NSCLC
# RPMI-8226 leukemia = tested on: RPMI-8226 leukemia
# NCI-H460 lung = tested on: NCI-H460 lung
# SN12C renal = tested on: SN12C renal
# SK-OV-3 ovarian = tested on: SK-OV-3 ovarian
# UO-31 renal = tested on: UO-31 renal
Structure (SMILES),TGI (COLO 205 colon) [µM],TGI (K-562 leukemia),TGI (OVCAR-3 ovarian),TGI (NCI-H226 lung),TGI (EKVX NSCLC),TGI (RPMI-8226 leukemia),TGI (NCI-H460 lung),TGI (SN12C renal),TGI (SK-OV-3 ovarian),TGI (UO-31 renal),GI50 (K-562 leukemia) [µM],GI50 (OVCAR-3 ovarian),GI50 (EKVX NSCLC),GI50 (NCI-H460 lung) [µM],GI50 (SN12C renal) [µM],GI50 (COLO 205 colon) [µM],GI50 (NCI-H226 lung) [µM],GI50 (RPMI-8226 leukemia) [µM],GI50 (SK-OV-3 ovarian) [µM],GI50 (UO-31 renal) [µM]
O=C1OC(CC(=O)c2ccc(Cl)c(Cl)c2)C(Cl)=C1Cl (centres undefined),> 100,> 100 µM,> 100 µM,> 100 µM,> 100 µM,> 100 µM,> 100 µM,> 100 µM,> 100 µM,> 100 µM,,,,,,,,,,
O=C1c2ccccc2C(=O)N1CCCSc1ccccc1,> 100,> 100 µM,> 100 µM,> 100 µM,> 100 µM,> 100 µM,> 100 µM,> 100 µM,> 100 µM,> 100 µM,,,,,,,,,,
CO[C@@H]1/C=C\C=C(/C)C(=O)NC2=CC(=O)C(NCCN(C)C)=C(C[C@@H](C)C[C@@H](OC)[C@@H](O)[C@H](C)/C=C(\C)[C@H]1OC(N)=O)C2=O,0.171,3.22 µM and 13.6 µM,6.26 µM and 2.39 µM,31.2 µM and 12.4 µM,11.1 µM and 7.59 µM,19.6 µM and 6.32 µM,3.61 µM and 3.76 µM,2.78 µM and 3.81 µM,> 37.4 µM and 6.86 µM,14 µM and 26.7 µM,0.0158,0.068 µM and 0.0369 µM,0.641 µM and 0.145 µM,< 0.0117,0.0135,,,,,
Cn1ccnc1CC(C)(O)c1ccccc1 (centres undefined),> 100,> 100 µM,> 100 µM,> 100 µM,> 100 µM,> 100 µM,> 100 µM,> 100 µM,> 100 µM,> 100 µM,,,,,,,,,,
CC(C)(C#N)c1cc(Cn2cncn2)cc(C(C)(C)C#N)c1,> 10000,,> 10000 µM,> 10000 µM,> 10000 µM,698 µM,> 10000 µM,> 10000 µM,> 10000 µM,> 10000 µM,,> 10000 µM,400 µM,3990,> 10000,2070,718,183,> 10000,720
CC(C)CS(=O)(=O)/C(=C(\c1ccc(Br)cc1)S(=O)(=O)CC(C)C)c1ccc(Br)cc1,> 100,> 100 µM,> 100 µM,> 100 µM,> 100 µM,> 100 µM,> 100 µM,> 100 µM,,> 100 µM,,,,,,,,,,
Cc1c[nH]c2c(O)cc3c(c12)[C@H](CCl)CN3C(=O)c1cc2cc(NC(=O)Nc3ccc4[nH]c(C(=O)N5C[C@@H](CCl)c6c5cc(O)c5[nH]cc(C)c65)cc4c3)ccc2[nH]1,,,43.2 µM,15.9 µM,7.21 nM and > 100 µM and 9.5e-07 µg/mL,,,,26.7 nM and > 100 µM and 8.88 µg/mL,,,,,,,0.0137,,,,0.0291
Cc1[nH]c2ccccc2c1C1Cc2ccccc2N1C(=O)/C=C\C(=O)O (centres undefined),> 100,> 100 µM,> 100 µM,> 100 µM,> 100 µM,,> 100 µM,> 100 µM,> 100 µM,> 100 µM,,,,,,,,,,
COc1cc(/C=C/C(=O)CC(=O)/C=C/c2cc(OC)c(OC)c(OC)c2)cc(OC)c1OC,> 100,> 100 µM,5.91 µM,> 100 µM,40.9 µM,,18.4 µM,37 µM,67.6 µM,13.1 µM,2.82,2.34 µM,3.59 µM,3.94,3.59,6.93,10.2,,12,3
COc1ccc(-c2onc(-c3ccc([N+](=O)[O-])cc3)c2C2=NCCN2)cc1,> 100,> 100 µM,> 100 µM,> 100 µM,> 100 µM,> 100 µM,> 100 µM,> 100 µM,,> 100 µM,,,,,,,,,,
CCOC(=O)C(Cc1c[nH]c2ccc(N)cc12)(NC(C)=O)C(=O)OCC,> 1000,> 1000 µM,> 1000 µM,> 1000 µM,> 1000 µM,,> 1000 µM,> 1000 µM,> 1000 µM,> 1000 µM,> 1000,> 1000 µM,> 1000 µM,> 1000,> 1000,849,> 1000,,> 1000,> 1000
CC/C(C)=C1\CCC(CN2CCOCC2)C1=O (centres undefined),,> 100 µM,29.5 µM,> 100 µM,34 µM,15.9 µM,32.4 µM,21.7 µM,,36.6 µM,,,,,,,,,,
COc1cc(/C=C(\C#N)C(=O)c2ccccc2)ccc1OCc1ccccc1,> 100,> 100 µM,> 100 µM,> 100 µM,> 100 µM,> 100 µM,,> 100 µM,> 100 µM,> 100 µM,,,,,,,,,,
Cc1c(NC(=O)C(C)(C)Br)c(=O)oc2c(C)c3occc(=O)c3cc12,> 100,> 100 µM,> 100 µM,71.9 µM,> 100 µM,> 100 µM,> 100 µM,> 100 µM,,76.2 µM,,,,,,,,,,
CC1C[C@@]2(c3ccccc3)C(=O)CCC[C@H]2N1 (some centres undefined),,> 100 µM,> 100 µM,> 100 µM,> 100 µM,,> 100 µM,> 100 µM,> 100 µM,> 100 µM,,,,,,,,,,
CC(C)c1ccc(C(=O)Nc2nc3ccc(O)cc3s2)cc1,> 100,28.6 µM,51.4 µM,50.4 µM,> 100 µM,> 100 µM,10.9 µM,> 100 µM,,> 100 µM,0.298,1.36 µM,2.34 µM,0.47,2.18,3.58,5.16,2.74,,0.35
CN1CCN(CCCN)CC1,> 100,> 100 µM,> 100 µM,> 100 µM,> 100 µM,> 100 µM,,> 100 µM,> 100 µM,> 100 µM,,,,,,,,,,
Nc1ccc(N(S(=O)(=O)c2ccccc2)S(=O)(=O)c2ccccc2)c(Cl)c1,> 100,> 100 µM,,> 100 µM,> 100 µM,> 100 µM,> 100 µM,> 100 µM,,> 100 µM,,,,,,,,,,
NNC(=O)/C(=C/c1ccc(Cl)c(Cl)c1)NC(=O)c1ccccc1,> 100,,> 100 µM,> 100 µM,> 100 µM,> 100 µM,> 100 µM,> 100 µM,,> 100 µM,,,,,,,,,,
